Measurements published in patent US5416070A, “Composition for macrophage activation” (ImmunoTherapeutics, Inc., priority 1990, dated 1995).

Tested on: human peripheral blood monocytes
Assay: Activation of human peripheral blood monocytes to the tumoricidal state (I125 labeled A-375 tumor cells)
Type: cell-based
Conditions: effector:target 10:1, A-375 tumor cells, 72 hours
Procedure: Monocyte tumoricidal activity was determined by the method of Fogler and Fidler (W. E. Fogler and I. J. Fidler, J. Immunol., 136; 2311-2317, 1986). Briefly, human peripheral blood monocytes were isolated by gradient centrifugation on 46% Percoll. Monocytes were then cultured in suspension for 18 hours in RPMI 1640 media containing 5% human sera with or without 1.0 μg/ml of Compound IIA at 1×10^6 monocytes/ml. After incubation monocytes were washed, and 1×10^5 or 5×10^4monocytes allowed to attach to wells of a 96-well microplate for 1 hour, then the plate was washed to remove non-adherent cells; to this, 1×10^4 I^125 labeled A-375 tumor cells were added. Monocytes were cultured with tumor cells for 72 hours. At the end of the 72 hour co-culture period, the plates were washed to remove non-adherent-non-viable tumor cells and the remaining adherent viable I^125 labeled tumor cells determined by lysing the cells with sodium dodecyl sulfate and counting radioactivity in a Gamma Counter.
Activation of human peripheral blood monocytes by liposomes consisting of PC and PG (7:3) containing Compound IIA was determined as described above.
The effector:target cell ratio was 10:1. The cultures contained a final concentration of 1.0 μg/ml of MDP, Compound IIA or Compound IIA in liposomes.

CCCCCCCCCCCCCCCC(=O)OCC(COC(=O)C(C)NC(=O)CCC(NC(=O)C(C)NC(=O)C(C)OC1C(NC(C)=O)C(O)OC(CO)C1OC1OC(CO)C(O)C(O)C1NC(C)=O)C(N)=O)OC(=O)CCCCCCCCCCCCCCC [Compound IIA, 4-O-[2-acetamido-2-deoxy-β-D-glucopyranosyl]-2-acetamido-2-deoxy-3-O-[D-2-propanoyl-L-alanyl-D-isoglutaminyl-L-alanyl-1,2-dipalmitoyl-sn-glycerol]-D-glucopyranose]
PERCENT CYTOTOXICITY (Experiment 1, 1.0 μg/ml): 59%
PERCENT CYTOTOXICITY (Experiment 2, 1.0 μg/ml): 37%
